Results on 20 molecules are retold here after US20130196984A1, “3-AMINO-5-PHENYL-56-DIHYDRO-2H-[1,4]OXAZINES” (Siena Biotech S.p.A., priority 2009, published 2013).

The target in assay [1] is T1, BACE2 (Rattus norvegicus, UniProt Q6IE75).
T1 construct: endogenous cellular BACE2 in the Ins1e rat cell line; endogenous in cells; host or cells: INS-TMEM27 (INS1e-derived rat cell line with doxycycline-inducible full-length hTMEM27)
T1 sequence (Q6IE75 63-514): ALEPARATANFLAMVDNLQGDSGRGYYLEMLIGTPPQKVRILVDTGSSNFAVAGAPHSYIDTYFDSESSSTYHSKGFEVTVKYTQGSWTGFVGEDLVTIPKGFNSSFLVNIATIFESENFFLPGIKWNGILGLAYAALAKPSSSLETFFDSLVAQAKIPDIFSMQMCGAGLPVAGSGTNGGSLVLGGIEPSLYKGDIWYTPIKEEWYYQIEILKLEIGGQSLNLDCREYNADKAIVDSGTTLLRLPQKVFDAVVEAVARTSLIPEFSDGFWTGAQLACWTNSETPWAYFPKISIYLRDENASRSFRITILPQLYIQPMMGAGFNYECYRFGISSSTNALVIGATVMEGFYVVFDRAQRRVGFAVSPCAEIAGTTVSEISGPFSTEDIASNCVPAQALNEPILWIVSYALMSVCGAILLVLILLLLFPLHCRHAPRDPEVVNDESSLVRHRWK
Briefly: Assay for BACE inhibition by measuring cellular TMEM27 cleavage.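 Also: inhibitor added 2 h before doxycycline-induced hTMEM27 expression, supernatant collected after further 46 h, endogenous BACE2 activity read as reduced TMEM27 shedding.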 It counts as cell-based. The note with it: INS-TMEM27 (INS1e-derived) cells, ELISA of shed human TMEM27 in supernatant. On the technique in general: ELISA stands for enzyme-linked immunosorbent assay.

For assay [2], the target named is T2, BACE2 (Homo sapiens, UniProt Q9Y5Z0).
T2 construct: BACE2 enzyme ectodomain (derived from plasmid “pET17b-T7-hu proBACE2”); T7 (N); made in house
T2 sequence (Q9Y5Z0 63-473 limits assumed): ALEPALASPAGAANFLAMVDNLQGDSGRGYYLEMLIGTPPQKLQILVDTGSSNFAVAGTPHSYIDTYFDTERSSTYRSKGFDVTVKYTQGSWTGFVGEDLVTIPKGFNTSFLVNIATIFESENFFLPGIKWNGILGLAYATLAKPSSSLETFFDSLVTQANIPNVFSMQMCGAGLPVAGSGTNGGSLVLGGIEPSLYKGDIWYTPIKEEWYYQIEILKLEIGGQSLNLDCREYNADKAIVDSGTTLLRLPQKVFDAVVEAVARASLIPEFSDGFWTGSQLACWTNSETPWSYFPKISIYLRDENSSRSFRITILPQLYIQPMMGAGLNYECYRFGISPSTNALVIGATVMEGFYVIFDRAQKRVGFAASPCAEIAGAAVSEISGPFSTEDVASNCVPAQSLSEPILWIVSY
Briefly: Assay A: binding studies using SPR based methods, immobilised BACE2. Conditions: CM5 chip, immobilised BACE2 enzyme ectodomain, acetate buffer pH 4.6, 4% DMSO.

Assay [3] has as its target T3, BACE1 (Homo sapiens, UniProt P56817). Briefly: Assay A: binding studies using SPR based methods, immobilised BACE1.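 Also: KD from a 1:1 kinetic fit (koff/kon) of real-time association and dissociation curves, or for fast binders from end-of-association equilibrium responses plotted against log concentration.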 Also on record: 6his-tagged full length BACE 1 expressed in SF9 cells; 6His; made in house; host or cells: SF9 insect cells. The note with it: CM5 chip, immobilised 6his-tagged full length BACE 1, acetate buffer pH 4.6, 4% DMSO. (In general: Surface plasmon resonance follows binding to a sensor surface in real time, without labels.)

The target of assay [4] is T3, BACE1. Briefly: Cellular Abeta-lowering assay. It is filed as cell-based. The note with it: HEK293 cells stably transfected with human APP wt (APP695), Aβ40 ELISA of supernatant after 18-20 hrs. Also on record: endogenous in cells; host or cells: HEK293 stably transfected with human APP695 wt.

Structures can show the parent of a compound that is named as a salt. Bounds are passed on as bounds.

T3 sequence (P56817 46-501): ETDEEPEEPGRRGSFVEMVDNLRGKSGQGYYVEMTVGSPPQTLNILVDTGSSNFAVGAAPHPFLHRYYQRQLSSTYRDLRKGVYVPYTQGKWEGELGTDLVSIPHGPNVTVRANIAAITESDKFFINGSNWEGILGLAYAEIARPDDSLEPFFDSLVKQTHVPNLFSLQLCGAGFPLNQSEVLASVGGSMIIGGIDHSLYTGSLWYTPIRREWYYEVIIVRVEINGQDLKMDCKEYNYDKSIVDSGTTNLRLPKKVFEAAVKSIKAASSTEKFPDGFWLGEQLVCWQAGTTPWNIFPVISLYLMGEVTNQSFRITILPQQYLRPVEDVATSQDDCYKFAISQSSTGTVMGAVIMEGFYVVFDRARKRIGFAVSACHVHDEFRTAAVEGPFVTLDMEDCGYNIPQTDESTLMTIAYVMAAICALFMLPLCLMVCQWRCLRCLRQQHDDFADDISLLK

What is called IC50 is the point on the concentration scale where inhibition reaches its midpoint. A higher IC50 goes with lower potency. In general, Kd refers to the constant that tells how readily two partners part at equilibrium. The molecule `CC1(c2cccc(NC(=O)c3ncc(F)cc3F)c2)COCC(N)=N1` (racemic) [Example 1, (RS)-3,5-Difluoro-pyridine-2-carboxylic acid [3-(5-amino-3-methyl-3,6-dihydro-2H-[1,4]oxazin-3-yl)-phenyl]-amide] showed an IC50 against BACE2 [1] of 21 nM. Moreover, the affinity at BACE2 [2], expressed as Kd, was 44 nM.
At BACE2 [1], `CC1(c2cc(NC(=O)c3ccc(Cl)cn3)ccc2F)COCC(N)=N1` (racemic) [Example 20, (RS)-5-chloro-pyridine-2-carboxylic acid [3-(5-amino-3-methyl-3,6-dihydro-2H-[1,4]oxazin-3-yl)-4-fluoro-phenyl]-amide] returned an IC50 of 6 nM. Moreover, the Kd at BACE2 [2] was 8 nM.
For `CC1(c2cccc(NC(=O)c3cnccn3)c2)COCC(N)=N1` (racemic) [Example 25, (RS)-Pyrazine-2-carboxylic acid [3-(5-amino-3-methyl-3,6-dihydro-2H-[1,4]oxazin-3-yl)phenyl]-amide hydrochloride], the Kd was 4170 nM on BACE1 [3] and 1220 nM at BACE2 [2]. For the same molecule, half-maximal inhibition against BACE1 [4] (IC50) was put at 410 nM.
For the molecule `CCCCc1ccc(C(=O)Nc2cccc(C3(C)COCC(N)=N3)c2)nc1` (racemic) [Example 32, 5-butyl-pyridine-2-carboxylic acid [3-((RS)-5-amino-3-methyl-3,6-dihydro-2H-[1,4]oxazin-3-yl)-phenyl]-amide hydrochloride], the Kd came out at 4200 nM at BACE1 [3] and 20000 nM at BACE2 [2]. At BACE1 [4], inhibition was half-maximal at 670 nM (IC50).
Take `CC1(c2cccc(NC(=O)c3ncc(C(F)(F)F)cc3Cl)c2)COCC(N)=N1` (racemic) [Example 33, 3-Chloro-5-trifluoromethyl-pyridine-2-carboxylic acid [3-((RS)-5-amino-3-methyl-3,6-dihydro-2H-[1,4]oxazin-3-yl)-phenyl]-amide]: the Kd came out at 77 nM on BACE1 [3] and 141 nM on BACE2 [2]. The molecule further gave an IC50 on BACE1 [4] of 26 nM.
Consider `CC1(c2cc(NC(=O)c3ccc(-c4cnco4)cc3)ccc2F)COCC(N)=N1` (racemic) [Example 52, (RS)—N-[3-(5-amino-3-methyl-3,6-dihydro-2H-[1,4]oxazin-3-yl)-4-fluoro-phenyl]-4-oxazol-5-yl-benzamide], for which the values for the Kd at BACE1 [3] and on BACE2 [2] were 194 nM and more than 10000 nM, respectively. The midpoint of inhibition on BACE1 [4], the IC50, lay at 1180 nM.
With `CC1(c2cc(NC(=O)C3(C(F)(F)F)CC3)ccc2F)COCC(N)=N1` (racemic) [Example 57], the IC50 on BACE2 [1] turned out to be 320 nM. The Kd at BACE1 [3] was more than 10000 nM; at BACE2 [2] it was 1800 nM.
For the molecule `CC1(c2cccc(NC(=O)c3ccc(OCC4CC4)cn3)c2)COCC(N)=N1` (racemic) [Example 60, 5-cyclopropylmethoxy-pyridine-2-carboxylic acid [3-((RS)-5-amino-3-methyl-3,6-dihydro-2H-[1,4]oxazin-3-yl)-phenyl]-amide hydrochloride], the Kd at BACE1 [3] was 112 nM; at BACE2 [2], 117 nM. The molecule also showed an IC50 on BACE1 [4] of 140 nM.
In the same order, the values of `CC1(c2cccc(NC(=O)c3ccc(OCCF)cn3)c2)COCC(N)=N1` (racemic) [Example 61, 5-(2-fluoro-ethoxy)-pyridine-2-carboxylic acid [3-((RS)-5-amino-3-methyl-3,6-dihydro-2H-[1,4]oxazin-3-yl)-phenyl]-amide hydrochloride] are 440 nM, 4680 nM and 390 nM.
In the same order, the values of `CC1(c2cccc(NC(=O)c3ccc(OCC(F)F)cn3)c2)COCC(N)=N1` (racemic) [Example 62, 5-(2,2-difluoro-ethoxy)-pyridine-2-carboxylic acid [3-((RS)-5-amino-3-methyl-3,6-dihydro-2H-[1,4]oxazin-3-yl)-phenyl]-amide hydrochloride] are 5520 nM, 7340 nM and 270 nM.
As for `CC1(c2cccc(NC(=O)c3ccncn3)c2)COCC(N)=N1` (racemic) [Example 63, pyrimidine-4-carboxylic acid [3-((RS)-5-amino-3-methyl-3,6-dihydro-2H-[1,4]oxazin-3-yl)-phenyl]-amide], the values for the Kd at BACE1 [3] and at BACE2 [2] were 3060 nM and 1090 nM, respectively. Further, the IC50 at BACE1 [4] worked out at 510 nM.
For `C=CCCOc1ccc(C(=O)Nc2cccc(C3(C)COCC(N)=N3)c2)nc1` (racemic) [Example 64, 5-but-3-enyloxy-pyridine-2-carboxylic acid [3-((RS)-5-amino-3-methyl-3,6-dihydro-2H-[1,4]oxazin-3-yl)-phenyl]-amide], the Kd is 483 nM at BACE1 [3] and 7820 nM at BACE2 [2]. In addition, the IC50 at BACE1 [4] amounted to 660 nM.
Take `Cc1cnc(C(=O)Nc2cccc(C3(C)COCC(N)=N3)c2)cn1` (racemic) [Example 65, 5-methyl-pyrazine-2-carboxylic acid [3-((RS)-5-amino-3-methyl-3,6-dihydro-2H-[1,4]oxazin-3-yl)-phenyl]-amide]: the Kd on BACE1 [3] turned out to be 2470 nM; on BACE2 [2] it was 1120 nM. At BACE1 [4], this molecule displayed an IC50 of 180 nM.
Consider `CC1(c2cccc(NC(=O)c3ccc(OCc4ccccc4)cn3)c2)COCC(N)=N1` (racemic) [Example 66, 5-benzyloxy-pyridine-2-carboxylic acid [3-((RS)-5-amino-3-methyl-3,6-dihydro-2H-[1,4]oxazin-3-yl)-phenyl]-amide hydrochloride], for which the Kd at BACE1 [3] came out at 173 nM; on BACE2 [2], 159 nM. The same molecule showed an IC50 on BACE1 [4] of 680 nM.
As for `CC1(c2cc(NC(=O)c3ccc(-c4ccco4)cn3)ccc2F)COCC(N)=N1` (racemic) [Example 76, 5-furan-2-yl-pyridine-2-carboxylic acid [3-((RS)-5-amino-3-methyl-3,6-dihydro-2H-[1,4]oxazin-3-yl)-4-fluoro-phenyl]-amide], the Kd at BACE1 [3] was determined as 93 nM; on BACE2 [2] it was 988 nM. The same molecule yielded an IC50 against BACE1 [4] of 15 nM.
In the same order, the values of `CC1(c2cc(NC(=O)c3ccc(N4CCCC4)cn3)ccc2F)COCC(N)=N1` (racemic) [Example 77, 5-pyrrolidin-1-yl-pyridine-2-carboxylic acid [3-((RS)-5-amino-3-methyl-3,6-dihydro-2H-[1,4]oxazin-3-yl)-4-fluoro-phenyl]-amide] are 1440 nM, 2600 nM and 800 nM.
Turning to `CC1(c2cc(NC(=O)c3cc(-c4cccs4)on3)ccc2F)COCC(N)=N1` (racemic) [Example 78, 5-thiophen-2-yl-isoxazole-3-carboxylic acid [3-((RS)-5-amino-3-methyl-3,6-dihydro-2H-[1,4]oxazin-3-yl)-4-fluoro-phenyl]-amide], the Kd on BACE1 [3] is 885 nM; at BACE2 [2], 6500 nM. Further, the IC50 against BACE1 [4] is 500 nM.
As to `C[C@@]1(c2cc(NC(=O)c3ccc(Cl)cn3)ccc2F)COCC(N)=N1` [Example 21, (R)-5-chloro-pyridine-2-carboxylic acid [3-(5-amino-3-methyl-3,6-dihydro-2H-[1,4]oxazin-3-yl)-4-fluoro-phenyl]-amide], at BACE2 [1], the IC50 turned out to be 2 nM. At BACE2 [2], this molecule registered a dissociation constant Kd of 4 nM.
The like results for `C[C@@]1(c2cc(NC(=O)c3ncc(Cl)cc3Cl)ccc2F)COCC(N)=N1` [Example 34, 3,5-dichloro-pyridine-2-carboxylic acid [3-((R)-5-amino-3-methyl-3,6-dihydro-2H-[1,4]oxazin-3-yl)-4-fluoro-phenyl]-amide] were, in that order, 4 nM and 3 nM.
With `C[C@@]1(c2cc(NC(=O)c3ccc(C#N)cc3F)ccc2F)COCC(N)=N1` [Example 42, N-[3-((R)-5-amino-3-methyl-3,6-dihydro-2H-[1,4]oxazin-3-yl)-4-fluoro-phenyl]-4-cyano-2-fluoro-benzamide], the results for the Kd at BACE1 [3] and at BACE2 [2] were 208 nM and 2550 nM, respectively. On BACE1 [4], this molecule gave an IC50 of 190 nM.
